Patent publication US10844077B2, “Thiazolyl-containing compounds for treating proliferative diseases” (Dana-Farber Cancer Institute, Inc., priority 2014, dated 2020)
Values joined by “and” are separate entries in the source; they are usually repeats but may differ in a detail not shown here. Equal entries are not always repeated.

Legend:
PRP4 = PRP4 (Homo sapiens (Human), UniProt Q13523)
Method: (§1) The cells were harvested and lysed. The lysates were directly labeled with an ATP-biotin probe. Bound kinases were identified and quantitated by ACTIVX as described in Patricelli et al., Biochemistry, 2007, 46(2): 350-358. The compounds were tested in duplicates against duplicate or quadruplicate control samples.

PCTAIRE2 = PCTAIRE2 (Homo sapiens (Human), UniProt Q00537)
Method: as §1

MAPKAPK3 = MAPKAPK3 (Homo sapiens (Human), UniProt Q16644)
Method: as §1

PRPK = PRPK (Homo sapiens (Human), UniProt Q96S44)
Method: as §1

PCTAIRE1 = PCTAIRE1 (Homo sapiens (Human), UniProt Q00536)
Method: as §1

Wnk1, Wnk2 = assay: KINATIV assay; format: cell-based; details: 1 μM, 90 minutes, BCWM.1 cells
How it was run: (§2)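 Chemoproteomic format: endogenous kinases in cell lysate were tagged by an ATP-biotin probe and quantitated by ACTIVX.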

eEF2K = eEF2K (Homo sapiens (Human), UniProt O00418); assay: KINATIV assay; format: cell-based; details: 1 μM, 90 minutes, BCWM.1 cells
How it was run: as §2

[1] = system: CaMK2a, CaMK2b, CaMK2d, CaMK2g; assay: KINATIV assay; format: cell-based; details: 1 μM, 90 minutes, BCWM.1 cells
How it was run: as §2

CK2a1 = CK2a1 (Homo sapiens (Human), UniProt P68400); assay: KINATIV assay; format: cell-based; details: 1 μM, 90 minutes, BCWM.1 cells
How it was run: as §2

LKB1 = LKB1 (Homo sapiens (Human), UniProt Q15831); assay: KINATIV assay; format: cell-based; details: 1 μM, 90 minutes, BCWM.1 cells
How it was run: as §2

PIP4K2C = PIP4K2C (Homo sapiens (Human), UniProt Q8TBX8); assay: KINATIV assay; format: cell-based; details: 1 μM, 90 minutes, BCWM.1 cells
Chain of PIP4K2C (Q8TBX8 whole entry): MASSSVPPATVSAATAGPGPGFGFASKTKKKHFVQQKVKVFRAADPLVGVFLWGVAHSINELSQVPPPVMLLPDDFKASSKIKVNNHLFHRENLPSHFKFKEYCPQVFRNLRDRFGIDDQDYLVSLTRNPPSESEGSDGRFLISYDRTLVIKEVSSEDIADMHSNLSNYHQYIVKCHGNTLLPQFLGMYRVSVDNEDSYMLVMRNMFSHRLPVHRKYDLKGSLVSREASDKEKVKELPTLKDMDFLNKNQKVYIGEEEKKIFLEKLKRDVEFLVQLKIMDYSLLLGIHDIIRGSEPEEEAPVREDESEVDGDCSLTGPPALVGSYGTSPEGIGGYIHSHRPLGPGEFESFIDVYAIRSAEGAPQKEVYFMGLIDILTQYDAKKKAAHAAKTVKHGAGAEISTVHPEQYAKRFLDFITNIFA
How it was run: as §2

ULK1 = ULK1 (Homo sapiens (Human), UniProt O75385); assay: KINATIV assay; format: cell-based; details: 1 μM, 90 minutes, BCWM.1 cells
How it was run: as §2

MSK2 domain1 = MSK2 domain1 (Homo sapiens (Human), UniProt O75676); assay: KINATIV assay; format: cell-based; details: 1 μM, 90 minutes, BCWM.1 cells
Chain of MSK2 domain1 (O75676 whole entry, the tested form may be a part): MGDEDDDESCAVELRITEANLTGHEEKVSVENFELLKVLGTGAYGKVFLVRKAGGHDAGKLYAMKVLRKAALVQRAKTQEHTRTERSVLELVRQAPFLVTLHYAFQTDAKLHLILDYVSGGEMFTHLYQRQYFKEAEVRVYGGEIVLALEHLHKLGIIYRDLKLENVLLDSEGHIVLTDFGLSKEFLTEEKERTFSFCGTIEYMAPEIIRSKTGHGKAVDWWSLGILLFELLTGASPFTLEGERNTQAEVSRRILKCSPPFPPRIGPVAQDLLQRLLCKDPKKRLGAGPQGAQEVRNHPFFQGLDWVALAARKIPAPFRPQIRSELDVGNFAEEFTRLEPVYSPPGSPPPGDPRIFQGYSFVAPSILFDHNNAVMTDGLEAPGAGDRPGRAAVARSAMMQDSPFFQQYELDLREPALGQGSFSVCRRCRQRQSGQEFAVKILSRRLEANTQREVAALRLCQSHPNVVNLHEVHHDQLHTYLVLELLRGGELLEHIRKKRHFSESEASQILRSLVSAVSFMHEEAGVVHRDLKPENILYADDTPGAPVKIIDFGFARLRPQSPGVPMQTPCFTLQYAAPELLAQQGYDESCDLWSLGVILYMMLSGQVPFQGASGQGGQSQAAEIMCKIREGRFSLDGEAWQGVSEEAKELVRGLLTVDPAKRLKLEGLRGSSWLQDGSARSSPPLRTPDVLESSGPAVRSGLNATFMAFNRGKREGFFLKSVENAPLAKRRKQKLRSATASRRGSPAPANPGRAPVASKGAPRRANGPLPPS
How it was run: as §2

PITSLRE = assay: KINATIV assay; format: cell-based; details: 1 μM, 90 minutes, BCWM.1 cells
How it was run: as §2

TYK2 domain2 = TYK2 domain2 (Homo sapiens (Human), UniProt P29597); assay: KINATIV assay; format: cell-based; details: 1 μM, 90 minutes, BCWM.1 cells
How it was run: as §2

TLK1 = TLK1 (Homo sapiens (Human), UniProt Q9UKI8); assay: KINATIV assay; format: cell-based; details: 1 μM, 90 minutes, BCWM.1 cells
Chain of TLK1 (Q9UKI8 whole entry): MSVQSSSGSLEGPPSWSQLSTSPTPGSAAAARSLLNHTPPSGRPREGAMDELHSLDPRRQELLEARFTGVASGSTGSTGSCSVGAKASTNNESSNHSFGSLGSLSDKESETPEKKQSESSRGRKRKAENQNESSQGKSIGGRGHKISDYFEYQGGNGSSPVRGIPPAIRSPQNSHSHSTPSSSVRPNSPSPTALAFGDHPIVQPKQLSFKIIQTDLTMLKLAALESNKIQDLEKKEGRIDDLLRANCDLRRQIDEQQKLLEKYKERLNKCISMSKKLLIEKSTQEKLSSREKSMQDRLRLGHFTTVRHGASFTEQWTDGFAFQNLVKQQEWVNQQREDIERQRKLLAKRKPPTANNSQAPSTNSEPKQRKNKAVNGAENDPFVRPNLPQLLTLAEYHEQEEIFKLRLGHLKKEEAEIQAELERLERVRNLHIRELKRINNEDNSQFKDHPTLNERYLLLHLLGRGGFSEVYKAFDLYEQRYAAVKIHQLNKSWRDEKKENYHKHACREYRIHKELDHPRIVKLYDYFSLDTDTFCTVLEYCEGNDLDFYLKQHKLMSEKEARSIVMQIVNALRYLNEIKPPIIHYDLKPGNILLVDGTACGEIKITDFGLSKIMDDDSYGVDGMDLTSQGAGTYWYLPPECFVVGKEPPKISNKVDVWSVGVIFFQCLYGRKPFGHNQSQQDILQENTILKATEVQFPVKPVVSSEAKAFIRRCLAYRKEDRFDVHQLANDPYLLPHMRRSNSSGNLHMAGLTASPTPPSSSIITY
How it was run: as §2

MYO3A, MYO3B = assay: KINATIV assay; format: cell-based; details: 1 μM, 90 minutes, BCWM.1 cells
How it was run: as §2

MLKL = MLKL (Homo sapiens (Human), UniProt Q8NB16); assay: KINATIV assay; format: cell-based; details: 1 μM, 90 minutes, BCWM.1 cells
How it was run: as §2

CaMK2g = CaMK2g (Homo sapiens (Human), UniProt Q13555); assay: KINATIV assay; format: cell-based; details: 1 μM, 90 minutes, BCWM.1 cells
How it was run: as §2

TBK1 = TBK1 (Homo sapiens (Human), UniProt Q9UHD2); assay: KINATIV assay; format: cell-based; details: 1 μM, 90 minutes, BCWM.1 cells
How it was run: as §2

TAO1, TAO3 = assay: KINATIV assay; format: cell-based; details: 1 μM, 90 minutes, BCWM.1 cells
How it was run: as §2

Wnk1, Wnk2, Wnk4 = assay: KINATIV assay; format: cell-based; details: 1 μM, 90 minutes, BCWM.1 cells
How it was run: as §2

PHKg2 = PHKg2 (Homo sapiens (Human), UniProt P15735); assay: KINATIV assay; format: cell-based; details: 1 μM, 90 minutes, BCWM.1 cells
How it was run: as §2

LATS2 = LATS2 (Homo sapiens (Human), UniProt Q9NRM7); assay: KINATIV assay; format: cell-based; details: 1 μM, 90 minutes, BCWM.1 cells
How it was run: as §2

TEC = TEC (Homo sapiens (Human), UniProt P42680); assay: KINATIV assay; format: cell-based; details: 1 μM, 90 minutes, BCWM.1 cells
Chain of TEC (P42680 whole entry): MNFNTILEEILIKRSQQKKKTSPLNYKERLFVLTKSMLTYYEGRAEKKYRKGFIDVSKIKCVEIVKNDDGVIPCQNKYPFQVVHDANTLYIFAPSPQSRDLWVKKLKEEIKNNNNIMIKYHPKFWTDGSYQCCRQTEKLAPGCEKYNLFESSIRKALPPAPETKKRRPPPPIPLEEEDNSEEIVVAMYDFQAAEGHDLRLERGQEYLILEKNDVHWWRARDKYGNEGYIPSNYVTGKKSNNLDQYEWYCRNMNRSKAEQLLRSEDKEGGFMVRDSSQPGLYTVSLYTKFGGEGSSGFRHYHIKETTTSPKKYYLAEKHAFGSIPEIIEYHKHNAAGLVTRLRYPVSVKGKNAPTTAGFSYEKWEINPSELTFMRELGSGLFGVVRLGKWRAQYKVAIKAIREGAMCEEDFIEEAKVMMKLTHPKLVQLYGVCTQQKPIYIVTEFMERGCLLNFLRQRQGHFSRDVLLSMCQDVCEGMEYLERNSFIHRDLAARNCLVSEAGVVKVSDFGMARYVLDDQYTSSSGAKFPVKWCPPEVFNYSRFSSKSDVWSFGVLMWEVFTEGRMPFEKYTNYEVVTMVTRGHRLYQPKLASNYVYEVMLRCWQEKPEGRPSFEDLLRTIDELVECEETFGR
How it was run: as §2

NEK1 = NEK1 (Homo sapiens (Human), UniProt Q96PY6); assay: KINATIV assay; format: cell-based; details: 1 μM, 90 minutes, BCWM.1 cells
How it was run: as §2

ITPK1 = ITPK1 (Homo sapiens (Human), UniProt Q13572); assay: KINATIV assay; format: cell-based; details: 1 μM, 90 minutes, BCWM.1 cells
How it was run: as §2

MSK1 domain1 = MSK1 domain1 (Homo sapiens (Human), UniProt O75582); assay: KINATIV assay; format: cell-based; details: 1 μM, 90 minutes, BCWM.1 cells
How it was run: as §2

CDK6 = CDK6 (Homo sapiens (Human), UniProt Q00534); assay: KINATIV assay; format: cell-based; details: 1 μM, 90 minutes, BCWM.1 cells
Chain of CDK6 (Q00534 whole entry): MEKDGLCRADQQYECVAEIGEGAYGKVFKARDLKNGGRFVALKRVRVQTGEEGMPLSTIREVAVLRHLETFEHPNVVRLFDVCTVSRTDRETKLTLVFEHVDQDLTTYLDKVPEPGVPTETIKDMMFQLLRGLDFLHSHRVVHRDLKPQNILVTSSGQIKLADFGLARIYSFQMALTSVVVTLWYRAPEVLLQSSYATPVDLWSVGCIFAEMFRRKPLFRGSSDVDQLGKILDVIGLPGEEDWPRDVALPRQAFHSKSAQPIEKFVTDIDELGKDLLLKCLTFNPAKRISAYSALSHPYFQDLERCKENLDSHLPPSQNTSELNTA
How it was run: as §2

GCN2 = GCN2 (Homo sapiens (Human), UniProt Q9P2K8); assay: KINATIV assay; format: cell-based; details: 1 μM, 90 minutes, BCWM.1 cells
Chain of GCN2 (Q9P2K8 whole entry): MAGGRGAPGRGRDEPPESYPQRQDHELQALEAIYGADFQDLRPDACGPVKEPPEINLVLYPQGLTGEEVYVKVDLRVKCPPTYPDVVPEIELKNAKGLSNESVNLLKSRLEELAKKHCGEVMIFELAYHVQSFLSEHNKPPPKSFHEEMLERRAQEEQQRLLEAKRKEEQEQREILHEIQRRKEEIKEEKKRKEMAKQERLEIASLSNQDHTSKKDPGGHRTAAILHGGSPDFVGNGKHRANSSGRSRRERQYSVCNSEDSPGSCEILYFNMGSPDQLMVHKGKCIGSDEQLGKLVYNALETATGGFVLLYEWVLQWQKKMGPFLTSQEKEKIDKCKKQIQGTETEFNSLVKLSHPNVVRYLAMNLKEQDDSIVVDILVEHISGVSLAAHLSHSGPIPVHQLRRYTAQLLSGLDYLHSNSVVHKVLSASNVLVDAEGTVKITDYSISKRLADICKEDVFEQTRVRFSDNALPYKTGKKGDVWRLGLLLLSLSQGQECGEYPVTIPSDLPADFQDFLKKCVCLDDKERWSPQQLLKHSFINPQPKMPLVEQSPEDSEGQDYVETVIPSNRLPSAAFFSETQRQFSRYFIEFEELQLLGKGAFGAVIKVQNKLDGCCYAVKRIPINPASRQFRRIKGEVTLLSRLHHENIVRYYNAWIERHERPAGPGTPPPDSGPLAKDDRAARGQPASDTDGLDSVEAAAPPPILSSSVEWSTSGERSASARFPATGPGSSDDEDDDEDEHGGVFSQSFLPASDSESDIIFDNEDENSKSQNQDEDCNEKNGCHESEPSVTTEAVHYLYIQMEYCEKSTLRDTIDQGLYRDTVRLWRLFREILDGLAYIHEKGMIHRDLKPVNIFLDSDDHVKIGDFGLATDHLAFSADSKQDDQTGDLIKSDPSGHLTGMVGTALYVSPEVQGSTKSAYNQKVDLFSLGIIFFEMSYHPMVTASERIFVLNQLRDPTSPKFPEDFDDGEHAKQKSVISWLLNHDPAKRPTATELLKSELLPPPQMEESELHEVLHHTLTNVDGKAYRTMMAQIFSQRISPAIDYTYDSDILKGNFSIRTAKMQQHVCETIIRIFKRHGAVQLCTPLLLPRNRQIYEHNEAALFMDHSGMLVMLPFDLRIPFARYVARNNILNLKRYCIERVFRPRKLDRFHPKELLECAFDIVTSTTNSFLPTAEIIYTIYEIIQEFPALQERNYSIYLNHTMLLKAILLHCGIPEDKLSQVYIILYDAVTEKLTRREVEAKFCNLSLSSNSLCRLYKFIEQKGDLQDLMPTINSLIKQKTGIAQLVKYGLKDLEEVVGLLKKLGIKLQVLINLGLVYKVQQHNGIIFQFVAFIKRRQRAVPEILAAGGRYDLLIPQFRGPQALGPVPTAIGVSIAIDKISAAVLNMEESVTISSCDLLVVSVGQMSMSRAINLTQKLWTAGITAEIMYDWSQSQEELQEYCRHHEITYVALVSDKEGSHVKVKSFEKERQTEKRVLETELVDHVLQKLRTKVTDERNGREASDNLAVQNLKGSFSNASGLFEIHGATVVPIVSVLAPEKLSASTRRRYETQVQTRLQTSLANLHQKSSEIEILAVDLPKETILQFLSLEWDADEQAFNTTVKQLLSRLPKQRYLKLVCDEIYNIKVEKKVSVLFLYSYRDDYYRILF
How it was run: as §2

CaMK4 = CaMK4 (Homo sapiens (Human), UniProt Q16566); assay: KINATIV assay; format: cell-based; details: 1 μM, 90 minutes, BCWM.1 cells
How it was run: as §2

MARK1, MARK2 = assay: KINATIV assay; format: cell-based; details: 1 μM, 90 minutes, BCWM.1 cells
How it was run: as §2

CK1g2 = CK1g2 (Homo sapiens (Human), UniProt P78368); assay: KINATIV assay; format: cell-based; details: 1 μM, 90 minutes, BCWM.1 cells
Chain of CK1g2 (P78368 whole entry): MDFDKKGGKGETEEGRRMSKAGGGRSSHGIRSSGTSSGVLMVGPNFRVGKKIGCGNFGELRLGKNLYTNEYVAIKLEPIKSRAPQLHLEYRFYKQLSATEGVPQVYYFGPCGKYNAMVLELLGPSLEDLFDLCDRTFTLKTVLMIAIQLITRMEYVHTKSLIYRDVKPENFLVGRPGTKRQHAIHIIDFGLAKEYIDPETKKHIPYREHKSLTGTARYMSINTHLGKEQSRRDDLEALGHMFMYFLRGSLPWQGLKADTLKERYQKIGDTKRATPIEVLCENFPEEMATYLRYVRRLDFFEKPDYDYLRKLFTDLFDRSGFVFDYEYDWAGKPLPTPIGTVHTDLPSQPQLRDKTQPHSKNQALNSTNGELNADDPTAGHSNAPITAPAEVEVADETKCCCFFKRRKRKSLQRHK
How it was run: as §2

TAO2 = TAO2 (Homo sapiens (Human), UniProt Q9UL54); assay: KINATIV assay; format: cell-based; details: 1 μM, 90 minutes, BCWM.1 cells
How it was run: as §2

AurB = AurB (Homo sapiens (Human), UniProt Q96GD4); assay: KINATIV assay; format: cell-based; details: 1 μM, 90 minutes, BCWM.1 cells
How it was run: as §2

Erk1 = Erk1 (Homo sapiens (Human), UniProt P27361); assay: KINATIV assay; format: cell-based; details: 1 μM, 90 minutes, BCWM.1 cells
How it was run: as §2

LCK = LCK (Homo sapiens (Human), UniProt P06239); assay: KINATIV assay; format: cell-based; details: 1 μM, 90 minutes, BCWM.1 cells
How it was run: as §2

SRPK1 = SRPK1 (Homo sapiens (Human), UniProt Q96SB4); assay: KINATIV assay; format: cell-based; details: 1 μM, 90 minutes, BCWM.1 cells
How it was run: as §2

KSR1, KSR2 = assay: KINATIV assay; format: cell-based; details: 1 μM, 90 minutes, BCWM.1 cells
How it was run: as §2

PCTAIRE2, PCTAIRE3 = assay: KINATIV assay; format: cell-based; details: 1 μM, 90 minutes, BCWM.1 cells
Description: (§3) The cells were harvested and lysed.

PCTAIRE1, PCTAIRE3 = assay: KINATIV assay; format: cell-based; details: 1 μM, 90 minutes, BCWM.1 cells
Description: as §3

With C=CC(=O)N1CCCCC(Nc2nccc(Nc3ncc(C(=O)Nc4c(C)cccc4C)s3)n2)C1 (centres unmarked) [Example I-7] the “% change of MS signal compared to control sample” value (“% change of MS signal” for short) (PRP4) was −4.1%, the “% change of MS signal” value (PCTAIRE2) was 9.9% and the “% change of MS signal” value (MAPKAPK3) was 0.9%. For the same compound, the “% change of MS signal” value (PRPK) was −3.8%, the “% change of MS signal” value (PCTAIRE1) was 38.2% and the “% change of MS signal” value (Wnk1, Wnk2) was −8.6%. The “% change of MS signal” value (eEF2K) was 4.9%, the “% change of MS signal” value [1] was 7.4% and the “% change of MS signal” value (CK2a1) was 14.3%. The “% change of MS signal” value (LKB1) was 1.2%, the “% change of MS signal” value (PIP4K2C) was 70.9% and 60.1% and the “% change of MS signal” value (ULK1) was 19.3%. For the same compound, the “% change of MS signal” value (MSK2 domain1) was −45.3%, the “% change of MS signal” value (PITSLRE) was −9.3% and the “% change of MS signal” value (TYK2 domain2) was −46.4%. For the same compound, the “% change of MS signal” value (TLK1) was 1.8% and 5.5%, the “% change of MS signal” value (MYO3A, MYO3B) was 17.2% and the “% change of MS signal” value (MLKL) was −6.3%. For the same compound, the “% change of MS signal” value (CaMK2g) was −12.8%, the “% change of MS signal” value (TBK1) was −39.7% and the “% change of MS signal” value (TAO1, TAO3) was −1.8%. For the same compound, the “% change of MS signal” value (Wnk1, Wnk2, Wnk4) was −6.6%, the “% change of MS signal” value (PHKg2) was 0.6% and the “% change of MS signal” value (LATS2) was −6.6%. For the same compound, the “% change of MS signal” value (TEC) was 85.1% and 58.6%, the “% change of MS signal” value (NEK1) was 11.4% and the “% change of MS signal” value (ITPK1) was −17.5%. For the same compound, the “% change of MS signal” value (MSK1 domain1) was −40.5%, the “% change of MS signal” value (CDK6) was 4.1% and the “% change of MS signal” value (GCN2) was −13.3% and −6.3%. For the same compound, the “% change of MS signal” value (CaMK4) was −24.9%, the “% change of MS signal” value (MARK1, MARK2) was 7.9% and the “% change of MS signal” value (CK1g2) was −3.7%. For the same compound, the “% change of MS signal” value (TAO2) was −18.0%, the “% change of MS signal” value (AurB) was −6.1% and the “% change of MS signal” value (Erk1) was −23.1%. The “% change of MS signal” value (LCK) was 96.5%, the “% change of MS signal” value (SRPK1) was 1.2% and the “% change of MS signal” value (KSR1, KSR2) was −10.1%. The “% change of MS signal” value (PCTAIRE2, PCTAIRE3) was 27.0% and the “% change of MS signal” value (PCTAIRE1, PCTAIRE3) was 14.9%.
